Results on 8 molecules are retold here after patent publication US10076533B2, “Acyclic nucleoside phosphonate diesters” (The Regents of the University of California, priority 2013, dated 2018).

A short description of data set [1]: Effect of oral compounds on body weight in Balb-c mice. The class given is in vivo. The settings on record: for body weight Day 0: before dosing; for lost % of body weight: day 6 versus day zero. The protocol: Compounds were administered at the indicated doses by oral gavage daily for 5 days. Weights measured before and on day 6 after 5 doses.
For data set [2], the system named is Hepatitis B virus. The experiment in a line: HBV replication in 2.2.15 cells, HBV DNA blot hybridization. The settings on record: for EC50: Hepatitis B virus, 168 h; for Selectivity Index: hepatitis B virus, 2.2.15 cells.
The nature of data set [3]: Viability of PBMC by XTT reduction. The settings on record: human.
The nature of data set [4]: Cytotoxicity in 2.2.15 cells by neutral red uptake. The settings on record: human.
Data set [5] has as its system HIV-192US727. The experiment in a line: Anti-HIV assay in human PBMC, supernatant reverse transcriptase activity. The settings on record: for Selectivity Index: HIV-192US727, human PBMC; for EC50: Human immunodeficiency virus 1, PBMC, 168 h.
The subject of data set [6] is HPV-11. Put plainly: HPV-11 origin replication in HEK 293 cells, qPCR. The class given is cell-based. The settings on record: HPV-11 origin replication in HEK 293 cells, 48 hr, qPCR; read-out: EC90 (concentration required to reduce viral replication by 90%). The protocol: An origin-containing plasmid was co-transfected with HPV-11 E1 and E2 protein expression vectors into HEK 293 cells. At 4 hr post-transfection, cells were treated with compound dilutions and the cells were incubated for 48 hr. Replication of the virus origin was detected with DpnI and exonuclease III to remove unreplicated input bacterial plasmid DNA. Remaining replicated DNA was quantified by qPCR. Toxicity was determined by trypan blue exclusion.

The subject of data set [7] is MT-2 cells. Put plainly: Cytotoxicity in MT-2 cells, flow cytometry cell counts and viability. It is filed as cell-based, human. The settings on record: 72 hrs; read-out: CC50, 50% Cytotoxic concentration MT2 cells T cell leukemia. The protocol:
MT-2 cells were incubated with drug for 72 hrs and harvested. Flow count beads (Beckman Coulter, Miami, Fla.) were added to the cell suspension followed by propidium iodide staining and analysis using flow cytometer and the 50% cytotoxic concentration (CC50) was calculated from the cell counts and viability.
Background: In flow cytometry, cells or beads pass a laser one at a time.

As for `CCCCCCCCCCCCCCCCCCOCCOP(=O)(O)COCCn1cnc2c(=O)[nH]c(N)nc21` [ODE-PMEG, octadecyloxyethyl 9-[2-(phosphonomethoxy)ethyl]guanine], the “body weight Day 6” value in data set [1] (4 mg/kg/day oral gavage daily for 5 days) is on record as 15.5 ± 0.514 (3). In addition, the “body weight Day 0” value in data set [1] (4 mg/kg/day oral gavage) was 19.17 ± 0.581 (3). The “lost % of body weight” value in data set [1] (4 mg/kg/day) was found to be 19.1%.

What is called EC50 is the concentration giving half of the maximal effect. Read a high EC50 as a need for much substance. With `CCCCCCCCCCCCCCCCCCOCCOP(=O)(CO[C@H](COC)Cn1cnc2c(N)ncnc21)Oc1ccccc1` (stereo partly drawn) [Compound 164, phenyl octadecyloxyethyl 9-(S)-[(3-methoxy-2-phosphonomethoxy)propyl]adenine], the EC50 in data set [2] was 0.46 µM; in data set [5], < 0.4 µM. The entries for the “Selectivity Index” value in data set [2] and in data set [5] were >216 and >37.5, respectively. In addition, the CC50 at 7 days in data set [3] was 15 µM; in data set [4], > 100 µM.

For the molecule `CCCCCCCCCCCCCCCCCCOCCOP(=O)(COCCn1cnc2c(=O)[nH]c(N)nc21)OCc1ccccc1` (single isomer, unassigned) [Compound 1a, benzyl octadecyloxyethyl 9-(2-phosphonomethoxyethyl)guanine], the EC90 in data set [6] stood at 1.06 µM. The CC50 in data set [7] was < 0.01 µM.

For the molecule `CCCCCCCCCCCCCCCCCCOCCOP(=O)(CO[C@H](COC)Cn1cnc2c(N)ncnc21)OCc1ccccc1` (stereo partly drawn) [Compound 146, benzyl octadecyloxyethyl 9-(S)-[(3-methoxy-2-phosphonomethoxy)propyl]adenine], the figures for the EC50 in data set [2] and in data set [5] were 33 µM and < 0.04 µM, respectively. Moreover, the results for the “Selectivity Index” value in data set [2] and in data set [5] were >3.03 and >312, respectively. Also, the CC50 at 7 days in data set [3] (PHA-stimulated human PBMCs) is 12.5 µM; in data set [4] it was > 100 µM.

For `CCCCCCCCCCCCCCCCCCOCCOP(=O)(COCCn1cnc2c(=O)[nH]c(N)nc21)OCc1ccccc1` (single isomer, unassigned) [Compound 1b, benzyl octadecyloxyethyl 9-(2-phosphonomethoxyethyl)guanine], the EC90 in data set [6] worked out at 1.16 µM. Moreover, in data set [7], the CC50 is < 0.01 µM.

For the molecule `CCCCCCCCCCCCCCCCCCOCCOP(=O)(CO[C@H](C)Cn1cnc2c(N)ncnc21)OCc1ccccc1` (stereo partly drawn) [Compound 74, benzyl octadecyloxyethyl 9-(R)-[(2-phosphonomethoxy)propyl]adenine], the EC50 in data set [2] is 6.5 µM; in data set [5], < 0.005 µM. Also, the entries for the “Selectivity Index” value in data set [2] and in data set [5] were 10 and >4920, respectively. Moreover, the CC50 at 7 days was determined as 24.6 µM in data set [3] (PHA-stimulated human PBMCs) and 64 µM in data set [4].

Turning to `CCCCCCCCCCCCCCCCCCOCCOP(=O)(CO[C@H](C)Cn1cnc2c(=O)[nH]c(N)nc21)OCc1ccccc1` (stereo partly drawn) [Compound 73, benzyl octadecyloxyethyl 9-(R)-[(2-phosphonomethoxy)propyl]guanine], the EC50 in data set [2] was 34 µM; in data set [5], < 0.005 µM. Further, the “Selectivity Index” value was 1.9 in data set [2] and >2260 in data set [5]. The CC50 at 7 days in data set [3] (PHA-stimulated human PBMCs) is 11.3 µM; in data set [4], 63 µM.

Turning to `CCCCCCCCCCCCCCCCCCOCCOP(=O)(O)CO[C@H](CO)Cn1ccc(N)nc1=O` [ODE-CDV], the “body weight Day 6” value in data set [1] (20 mg/kg/day oral gavage daily for 5 days) is on record as 16.96 ± 1.38 (6). The “body weight Day 0” value in data set [1] (20 mg/kg/day oral gavage) is listed as 19.88 ± 0.55 (6). The “lost % of body weight” value in data set [1] (20 mg/kg/day) amounted to 14.7%.
